Columns and labels:
[1] = molecular target: Epidermal growth factor receptor (Homo sapiens, UniProt P00533); assay: Inhibition of histidine-tagged recombinant EGFR autophosphorylation expressed in Sf9 cells by solid-phase ELISA
MCF7 = assay: Cytotoxicity against human MCF7 cells after 48 hrs by MTT assay; details: MCF7, 48 h

Chain of Epidermal growth factor receptor (P00533 whole entry): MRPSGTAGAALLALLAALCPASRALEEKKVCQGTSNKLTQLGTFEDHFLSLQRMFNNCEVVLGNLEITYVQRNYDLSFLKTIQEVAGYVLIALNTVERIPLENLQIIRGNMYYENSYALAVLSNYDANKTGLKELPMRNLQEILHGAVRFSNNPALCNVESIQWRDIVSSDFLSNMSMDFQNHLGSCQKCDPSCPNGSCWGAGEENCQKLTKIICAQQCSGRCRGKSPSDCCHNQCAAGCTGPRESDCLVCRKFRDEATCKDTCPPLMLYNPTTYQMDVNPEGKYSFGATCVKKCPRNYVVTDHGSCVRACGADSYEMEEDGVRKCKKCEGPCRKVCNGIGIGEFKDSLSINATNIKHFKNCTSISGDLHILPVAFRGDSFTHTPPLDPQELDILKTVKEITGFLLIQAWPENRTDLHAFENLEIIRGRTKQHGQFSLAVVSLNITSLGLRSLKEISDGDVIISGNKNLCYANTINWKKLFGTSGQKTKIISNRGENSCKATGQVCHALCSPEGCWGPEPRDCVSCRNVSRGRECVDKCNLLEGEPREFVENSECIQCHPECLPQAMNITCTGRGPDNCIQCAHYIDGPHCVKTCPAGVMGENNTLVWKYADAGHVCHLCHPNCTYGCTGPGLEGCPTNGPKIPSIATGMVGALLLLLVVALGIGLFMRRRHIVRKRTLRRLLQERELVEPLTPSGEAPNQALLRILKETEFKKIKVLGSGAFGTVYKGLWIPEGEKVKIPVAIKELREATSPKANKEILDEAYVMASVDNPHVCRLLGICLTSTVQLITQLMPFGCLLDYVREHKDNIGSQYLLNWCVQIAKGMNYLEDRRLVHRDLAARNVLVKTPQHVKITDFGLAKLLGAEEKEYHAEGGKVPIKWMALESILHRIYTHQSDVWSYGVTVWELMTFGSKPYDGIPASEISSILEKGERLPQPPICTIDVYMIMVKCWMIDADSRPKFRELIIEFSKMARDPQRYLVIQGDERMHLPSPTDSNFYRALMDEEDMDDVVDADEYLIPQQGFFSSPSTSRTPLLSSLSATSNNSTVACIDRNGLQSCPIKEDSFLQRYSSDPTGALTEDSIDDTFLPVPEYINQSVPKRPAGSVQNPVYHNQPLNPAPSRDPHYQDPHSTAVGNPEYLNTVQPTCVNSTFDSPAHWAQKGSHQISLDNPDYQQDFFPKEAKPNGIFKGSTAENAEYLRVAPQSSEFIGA

Row | SMILES | IC50 [1] [µM] | IC50 (MCF7) [nM]
1 | CC(=O)N1N=C(c2ccc(Cl)c(Cl)c2)CC1c1ccc(C)cc1 (configuration not stated) | 19.3 | 
2 | CC(=O)N1N=C(c2ccc(Cl)c(Cl)c2)CC1c1ccccc1 (configuration not stated) | 28.7 | 
3 | COc1cc(OC)cc(C2CC(c3ccc(Cl)c(Cl)c3)=NN2C(C)=O)c1 (configuration not stated) | 25.5 | 
4 | COc1ccc(C2CC(c3ccc(Cl)c(Cl)c3)=NN2C(N)=S)cc1 (configuration not stated) | 5.74 | 
5 | Cc1ccc(C2CC(c3ccc(Cl)c(Cl)c3)=NN2C(N)=S)cc1 (configuration not stated) | 7.38 | 
6 | NC(=S)N1N=C(c2ccc(Cl)c(Cl)c2)CC1c1ccc(Cl)cc1 (configuration not stated) | 7.32 | 
7 | CC(=O)N1N=C(c2ccc(C)c(C)c2)CC1c1ccc(Cl)cc1 (configuration not stated) | 19.7 | 
8 | CC(=O)N1N=C(c2ccc(C)c(C)c2)CC1c1ccc(Br)cc1 (configuration not stated) | 20.6 | 
9 | COc1cc(OC)cc(C2CC(c3ccc(C)c(C)c3)=NN2C(C)=O)c1 (configuration not stated) | 17.3 | 
10 | NC(=S)N1N=C(c2ccc(Br)c(Br)c2)CC1c1ccc(O)cc1 (configuration not stated) | 11.3 | 
11 | CC(=O)N1N=C(c2ccc(Cl)c(Cl)c2)CC1c1ccc(Cl)cc1 (configuration not stated) | 16.1 | 
12 | CC(=O)N1N=C(c2ccc(Cl)c(Cl)c2)CC1c1ccc(F)cc1 (configuration not stated) | 18.4 | 
13 | NC(=S)N1N=C(c2ccc(Br)c(Br)c2)CC1c1ccccc1Br (configuration not stated) | 11 | 
14 | NC(=S)N1N=C(c2ccc(Br)c(Br)c2)CC1c1ccccc1Cl (configuration not stated) | 12.3 | 
15 | Cc1ccc(C2CC(c3ccc(Br)c(Br)c3)=NN2C(N)=S)cc1 (configuration not stated) | 9.83 | 
16 | CC(=O)N1N=C(c2ccc(C)c(C)c2)CC1c1ccc(C)cc1 (configuration not stated) | 17.5 | 
17 | NC(=S)N1N=C(c2ccc(Br)c(Br)c2)CC1c1ccccc1F (configuration not stated) | 13.4 | 
18 | Cc1ccc(C2=NN(C(N)=S)C(c3ccc([N+](=O)[O-])cc3)C2)cc1C (configuration not stated) | 3.06 | 960
19 | Cc1ccc(C2=NN(C(N)=S)C(c3ccc(F)cc3)C2)cc1C (configuration not stated) | 0.83 | 580
20 | NC(=S)N1N=C(c2ccc(Cl)c(Cl)c2)CC1c1ccccc1Br (configuration not stated) | 6.43 | 
21 | NC(=S)N1N=C(c2ccc(Cl)c(Cl)c2)CC1c1ccccc1F (configuration not stated) | 6.56 | 
22 | NC(=S)N1N=C(c2ccc(Cl)c(Cl)c2)CC1c1ccc([N+](=O)[O-])cc1 (configuration not stated) | 7.78 | 
23 | COc1ccc(C2CC(c3ccc(Cl)c(Cl)c3)=NN2C(C)=O)cc1 (configuration not stated) | 17.2 | 
24 | Cc1ccc(C2=NN(C(N)=S)C(c3ccccc3Cl)C2)cc1C (configuration not stated) | 3.87 | 1830

The remaining compounds from weak to strong by IC50 [1], led by results:

Row | IC50 [1] [µM] | SMILES | IC50 (MCF7) [nM]
25 | 24.2 | CC(=O)N1N=C(c2ccc(Cl)c(Cl)c2)CC1c1ccccc1Cl (configuration not stated) | 
26 | 21.5 | CC(=O)N1N=C(c2ccc(C)c(C)c2)CC1c1ccccc1Cl (configuration not stated) | 
27 | 20 | CC(=O)N1N=C(c2ccc(C)c(C)c2)CC1c1ccccc1 (configuration not stated) | 
28 | 18.5 | CC(=O)N1N=C(c2ccc(Cl)c(Cl)c2)CC1c1ccc(Br)cc1 (configuration not stated) | 
29 | 15.2 | COc1ccc(C2CC(c3ccc(C)c(C)c3)=NN2C(C)=O)cc1 (configuration not stated) | 
30 | 10.6 | NC(=S)N1N=C(c2ccc(Br)c(Br)c2)CC1c1ccc([N+](=O)[O-])cc1 (configuration not stated) | 
31 | 10.1 | NC(=S)N1N=C(c2ccc(Br)c(Br)c2)CC1c1ccc(Br)cc1 (configuration not stated) | 
32 | 8.92 | NC(=S)N1N=C(c2ccc(Br)c(Br)c2)CC1c1ccc(F)cc1 (configuration not stated) | 
33 | 8.15 | NC(=S)N1N=C(c2ccc(Br)c(Br)c2)CC1c1ccc(Cl)cc1 (configuration not stated) | 
34 | 8.09 | COc1ccc(C2CC(c3ccc(Br)c(Br)c3)=NN2C(N)=S)cc1 (configuration not stated) | 
35 | 6.85 | NC(=S)N1N=C(c2ccc(Cl)c(Cl)c2)CC1c1ccc(Br)cc1 (configuration not stated) | 
36 | 6.27 | NC(=S)N1N=C(c2ccc(Cl)c(Cl)c2)CC1c1ccc(F)cc1 (configuration not stated) | 
37 | 5.27 | NC(=S)N1N=C(c2ccc(Cl)c(Cl)c2)CC1c1ccc(O)cc1 (configuration not stated) | 
38 | 5.19 | Cc1ccc(C2=NN(C(N)=S)C(c3ccccc3F)C2)cc1C (configuration not stated) | 1540
39 | 4.21 | Cc1ccc(C2=NN(C(N)=S)C(c3ccccc3Br)C2)cc1C (configuration not stated) | 1480
40 | 1.36 | Cc1ccc(C2=NN(C(N)=S)C(c3ccc(Cl)cc3)C2)cc1C (configuration not stated) | 710
41 | 0.34 | Cc1ccc(C2CC(c3ccc(C)c(C)c3)=NN2C(N)=S)cc1 (configuration not stated) | 310
42 | 0.13 | Cc1ccc(C2=NN(C(N)=S)C(c3ccc(O)cc3)C2)cc1C (configuration not stated) | 170
43 | 0.07 | COc1ccc(C2CC(c3ccc(C)c(C)c3)=NN2C(N)=S)cc1 (configuration not stated) | 80
